Results reported in patent US7135497B1, “Treating neural conditions resulting from spinal cord contusions and other causes” (New York Medical College, priority 2000, dated 2006).

Experiments:
[1] = tested on: spinal cord contused rats; experiment: Spinal cord histomorphometry: % spared tissue at the contusion center; type: in vivo, rat; conditions: 6 weeks, 9 mg/L in drinking water
Description: (§1) Adult female Wistar rats (˜245 g) were obtained from Charles River Breeding Laboratories and housed in a temperature-regulated (23° C.) animal facility. The spinal cords were contused with a weight drop apparatus similar to the NYU impactor (See also Basso, D. M., M. S. Beattie, and I. C. Breslmahan, 1996, Graded histological and locomotor outcomes after spinal cord contusion using the NYU weight-drop device versus transection, Exp. Neurol. 139:244–256, incorporated by reference) at the level of T10. Prior to surgery, the rats were anesthetized with an injection of pentobarbital sodium (60 mg/kg ip) and laminectomy was performed aseptically at T9–T10 to expose the spinal cord. The spinous processes at T8 and T11 were fixed with clamps to prevent movement during contusion. Body temperature was maintained at 37° C. during the period of anesthesia with a temperature-controlled heating pad and rectal thermometer. Graded injuries were produced in groups of rats by dropping a 10 g rod with a tip diameter of 2.5 mm from heights of either 6.25, 12.5, 25 or 50 mm as in the experiments of Basso identified above. Following contusion, each incision was closed with woundclips. An additional four groups of identically contused rats received clenbuterol received (from Chinoin, Mexico City) that was administered by adding it to the drinking water at a dose of 9 mg/L. This concentration delivers clenbuterol at a rate of 1.6 mg/kg body wt./day. The animals had access to water and food in their cages immediately after recovery from surgery and throughout the experiment. Water consumption is not believed to be affected by the addition of clenbuterol. Oral dosing is particularly effective over prolonged periods because clenbuterol readily enters the circulation via the gut, has high receptor affinity and a relatively long half-life. In all, 8 treatment groups (Table I) were examined. All of the procedures involving vertebrate animals were approved by the Institutional Animal Care and Use Committee of New York Medical College. […]

[2] = tested on: cultured hippocampal neurons; conditions: in vitro; the NGF protected cultured hippocampal neurons from glutamate excitotoxicity; cited from earlier work
[3] = tested on: spinal cord contused rats; experiment: Locomotor recovery (BBB scale) after weight-drop spinal cord contusion at T10; type: in vivo, rat
Description: as §1, with “examined.” for “examined. All of the procedures involving vertebrate animals were approved by the Institutional Animal Care and Use Committee of New York Medical College.”
Recovery of locomotor function was determined with BBB scale as previously described. […] For the three days following contusion and at one week intervals thereafter for a total of six weeks, each rat was scored for locomotor function according to the BBB scale. […] For several rats in treatment groups receiving 50 mm weight drops, treatment conditions became known and were scored by one observer. […]
To confirm that salbutamol, a β2-adrenoceptor agonist, can enhance recovery of locomotor function following spinal cord injury. Groups of untreated and salbutamol-treated rats were evaluated with the 21 point Basso, Beattie and Bresnahan (BBB) scale (FIG. 9) following spinal cord contusion with a weight-drop device (10 g, 25 mm drop), Salbutamol was administered via subcutaneously implanted osmotic minipumps (Alzet) that delivered 1 mg/kg body weight/day during the 28 day recovery period. […]

[4] = tested on: interleukin-6 secretion; conditions: cited from earlier work
[5] = tested on: brain ischemia; conditions: in vivo; cited from earlier work
[6] = tested on: motor neuron degeneration (Mnd) mice; experiment: Hindlimb muscle weight in Mnd and WT mice; type: in vivo, mouse; conditions: 9 mg/L in drinking water
Description: (§2) Forelimb and hindlimb grip strength was measured in groups of Mnd and wild type (WT) mice that were either treated with clenbuterol in the drinking H2O (9 mg/L) until 37 weeks of age or were untreated. Forelimb and hindlimb grip strength was reduced 44–66% in Mnd compared to WT mice (FIG. 6). Clenbuterol caused relative increases in forelimb grip strength that were greater in Mnd (75%) compared to WT (20%, P<0.05, t test) mice. […] These effects of genotype and clenbuterol treatment were paralleled by similar changes in muscle mass. Thus the hindlimb soleus and extensor digitorum longus muscles were reduced 27–32% in Mnd compared to WT mice (FIG. 7). Clenbuterol caused relative increases of 46% and 29% in soleus weight in Mnd and Wt mice, respectively.

[7] = tested on: motor neuron degeneration (Mnd) mice; experiment: Behavioral tests of walking and hindlimb splaying (Messer and Flaherty), number of abnormal trials; type: in vivo, mouse; conditions: of 50 trials per week, from 31 to 37 weeks of age, clenbuterol-treated n=5, P<0.01 versus untreated
Description: Behavioral tests developed by Messer and Flaherty in their original description of the Mnd mice were also performed. As described in their publication (J. Neurogenetics 3:345–355, 1986), incorporated by reference, five tests of different aspects of walking and hindlimb splaying are run each week with 10 trials for each test for a total of 50 trials. The mean number of abnormal trials occurring in clenbuterol-treated (n=5) and untreated (n=7) Mnd mice were determined until the mice were 37 weeks of age at the end of the experiment (FIG. 8). Beginning at 31 weeks of age, there is a marked worsening of behavioral scores. […] The frequency of abnormal motoneurons in each mouse was highly correlated with locomotor scores. Clenbuterol reduced the frequency of abnormal motoneurons to 8.3±0.7% (P<0.015) indicating a neurotrophic effect of β2-agonist treatment.

[8] = in vivo; cited from earlier work
[9] = tested on: motor neuron degeneration (Mnd) mice; experiment: Motoneuron counts and abnormal eccentric nuclei in the lumbar spinal cord; type: in vivo, mouse
[10] = tested on: motor neuron degeneration (Mnd) mice; experiment: Forelimb and hindlimb grip strength in Mnd and WT mice; type: in vivo, mouse; conditions: 9 mg/L in drinking water until 37 weeks of age
Description: as §2

## CC(C)(C)NCC(O)c1cc(Cl)c(N)c(Cl)c1 (stereo not shown) [clenbuterol]
[1]; 12.5 mm weight drop
  sparing of spinal cord tissue accounted for by treatment: 23%
[1]; 25 mm weight drop
  sparing of spinal cord tissue accounted for by treatment: 33%
[1]; 50 mm weight drop
  sparing of spinal cord tissue accounted for by treatment: 34%
[2]
  release of NGF: caused the release of NGF
[3]; 25 mm weight drop, versus untreated, 6 weeks
  improvement in final BBB score due to clenbuterol: 9.3 levels
[3]; 50 mm weight drop, fourth, fifth and sixth weeks, versus untreated
  increase in BBB score: 5.1–5.8 levels
[3]; mean ±SE over the four clenbuterol-treated groups (6.25-50 mm weight drops), 6 weeks, 9 mg/L in drinking water, untreated 8.0±2.9, P<0.05
  mean of the final BBB scores: 13.2±1.5
[4]
  secretion of IL-6: greatly increases secretion of IL-6
[5]
  effect on hippocampal neurons following ischemia: neuroprotective effects
  infarct volume due to brain ischemia: reduced infarct volume
[6]; Mnd mice
  increase in extensor digitorum longus muscle weight: 21%
  relative increase in soleus weight: 46%
[6]; Wt mice
  relative increase in soleus weight: 29%
[7]
  mean number of abnormal trials: 6.3±1.6
[8]
  blood-brain barrier passage: crosses the blood-brain barrier
[9]
  motoneuron counts in the lumbar spinal cord: not significantly reduced in Mnd mice or affected by clenbuterol
[9]; clenbuterol-treated, untreated Mnd 12.6±0.9%, WT 2.3±0.2%, P<0.015
  frequency of abnormal motoneurons (abnormal eccentric nuclei): 8.3±0.7%
[10]; Mnd mice
  increase in hindlimb grip strength: 29%
  relative increase in forelimb grip strength: 75%
[10]; WT mice
  effect on hindlimb strength: did not significantly affect
  relative increase in forelimb grip strength: 20%

## CC(C)(C)NCC(O)c1ccc(O)c(CO)c1 (stereo not shown) [salbutamol]
[3]; 10 g, 25 mm drop, 1 mg/kg body weight/day by subcutaneous osmotic minipump, 28 days, versus untreated control, P<0.05
  recovery of locomotor function (BBB scale): significantly greater
